The values that follow are results of earlier work, collected in patent US7807682B2, “Pyridyl cyanoguanidine compounds” (Leo Pharma A/S, priority 2001, dated 2010).

Series [1] concerns normal human endothelial cells.
A further series concerns human tumour cells. Particulars: nude mice transplanted with human tumour cells, also paclitaxel-resistant tumour cells.

In the case of `N#CNC(=Nc1ccncc1)NCCCCCCOc1ccc(Cl)cc1` [N-(6-(4-chlorophenoxy)hexyl)-N′-cyano-N″-(4-pyridyl)guanidine], in series [1], the “antiproliferative activity on normal human endothelial cells” value is reported as “considerably less antiproliferative activity”. The “antitumour activity in vivo” value in the series on human tumour cells is given as “substantial antitumour activity”.
